The values that follow come from ChEMBL document CHEMBL1201862, “PubChem BioAssay data set” (2004).

Assay in all cases: NCI tumour cell line growth inhibition, 48 h
The test system of assay [1] is OVCAR-8.
The test system of assay [2] is UACC-257.
Assay [3] relates to Hs-578T.
Assay [4] concerns MDA-N.
Assay [5] relates to SN12C.
The subject of assay [6] is LOX IMVI.
Assay [7] concerns NCI-H226.
The test system of assay [8] is HOP-62.
In assay [9] the test system is SW-620.
Assay [10] deals with ACHN.
For assay [11], the system named is SNB-19.
The test system of assay [12] is HCT-15.
The subject of assay [13] is SF-539.
For assay [14], the system named is UACC-62.
The subject of assay [15] is SNB-75.
In assay [16] the test system is 786-0.
In assay [17] the test system is M14.
Assay [18] relates to U-251.
Assay [19] concerns Malme-3M.
In assay [20] the test system is CCRF-CEM.

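1) Cells in 96-well plates. 2) Compound, 48 h, 5 concentrations. 3) Linear interpolation between surrounding doses. 4) Unreached endpoint = highest concentration. Abbreviation: GI50, concentration required for 50% inhibition of growth.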 Activity calls are given as the source filed them. Cut-off read from the data, not from the text of the source: active = GI50 up to about 1.1 µM and inactive = higher.

For `CC1=NN2C=Nc3c(c(-c4ccc(Cl)cc4)cn3-c3ccc(C)cc3)C2N1` (stereo not drawn), the GI50 in assay [1] is 29.9 µM (inactive); in assay [2] it was > 100 µM (inactive); in [3] it was 11.3 µM (inactive); in assay [4], > 100 µM (inactive); in [5], > 100 µM (inactive); in assay [6], > 100 µM (inactive). Moreover, the GI50 was > 100 µM (inactive) in assay [7]; 36.5 µM (inactive) in assay [8]; > 100 µM (inactive) in assay [9]; > 100 µM (inactive) in assay [10]; 54.5 µM (inactive) in assay [11]; more than 100 µM in assay [12]. Further, the GI50 was 87.1 µM (inactive) in [13]; 61 µM (inactive) in [14]; 30.5 µM (inactive) in assay [15]; 19.5 µM (inactive) in assay [16]; > 100 µM (inactive) in assay [17]; 76.2 µM (inactive) in assay [18]. The GI50 in assay [19] and in assay [20] was > 100 µM (inactive) in each case.

`Cc1cc2c3ccccc3n(C)c2c2c1C(=O)C=CC2=O`: the GI50 was 24.8 µM (inactive) in [1]; 13.2 µM (inactive) in assay [2]; 22.3 µM (inactive) in assay [3]; 12.9 µM (inactive) in assay [4]; 18.1 µM (inactive) in assay [5]; 17.5 µM (inactive) in assay [6]. In addition, the GI50 was 21.2 µM (inactive) in assay [7]; 22.4 µM (inactive) in assay [8]; 10.7 µM (inactive) in assay [9]; 20.9 µM (inactive) in assay [10]; 28.5 µM (inactive) in [11]; 9.33 µM in assay [12]. Also, the GI50 in [13] is 21.6 µM (inactive); in assay [14], 16.3 µM (inactive); in assay [15] it was 27 µM (inactive); in assay [16], 5.78 µM (inactive); in assay [17], 17.8 µM (inactive); in [18], 17.3 µM (inactive). Moreover, the results for the GI50 in assay [19] and in assay [20] were 20 µM (inactive) and 2.42 µM (inactive), respectively.

Regarding `CC(=O)OC1CC2(C)C(=CC1C1SCCS1)CCC1C2CCC2(C)C(OC(C)=O)CCC12` (stereo not drawn), the GI50 is > 100 µM (inactive) in assay [1]; > 100 µM (inactive) in assay [2]; 14.6 µM (inactive) in assay [3]; > 100 µM (inactive) in [4]; > 100 µM (inactive) in assay [5]; > 100 µM (inactive) in assay [6]. Besides, the GI50 in assay [7] was > 100 µM (inactive); in assay [8] it was 97.5 µM (inactive); in [9] it was > 100 µM (inactive); in [10], > 100 µM (inactive); in assay [11], 37.1 µM (inactive); in assay [12], more than 100 µM. The GI50 in assay [13] was 53.1 µM (inactive); in [14], > 100 µM (inactive); in assay [15], 13.2 µM (inactive); in [16] it was > 100 µM (inactive); in assay [17], > 100 µM (inactive); in assay [18], 32.3 µM (inactive). Besides, the GI50 in [19] and in assay [20] was > 100 µM (inactive) each time.

On to `Cc1cc(C23OC4COC(C)(C)OC4C2OC(C)(C)O3)nc2ccccc12` (stereo not drawn), for which the GI50 in assay [1] is > 100 µM (inactive); in assay [2], > 100 µM (inactive); in [3], 82.2 µM (inactive); in assay [4], > 100 µM (inactive); in assay [5], > 100 µM (inactive); in assay [6], > 100 µM (inactive). Further, the GI50 in assay [7] was > 100 µM (inactive); in [8] it was > 100 µM (inactive); in assay [9], > 100 µM (inactive); in [10] it was > 100 µM (inactive); in assay [11], > 100 µM (inactive); in [12], more than 100 µM. Further, the GI50 in [13], in assay [14], in assay [15], in [16], in [17] and in assay [18] was > 100 µM (inactive) in each case. The GI50 in assay [19] is > 100 µM (inactive); in assay [20], 32.1 µM (inactive).

Take `c1cc(C2=NCCO2)c2ccsc2c1`: the GI50 in assay [1] was > 100 µM (inactive); in [2], > 100 µM (inactive); in [3] it was 22.7 µM (inactive); in [4], > 100 µM (inactive); in [5], > 100 µM (inactive); in assay [6], > 100 µM (inactive). Also, the GI50 is > 100 µM (inactive) in [7]; > 100 µM (inactive) in assay [8]; > 100 µM (inactive) in assay [9]; > 100 µM (inactive) in assay [10]; > 100 µM (inactive) in [11]; more than 100 µM in [12]. Also, the GI50 in [13] was > 100 µM (inactive); in assay [14], > 100 µM (inactive); in [15] it was 0.0573 µM (active); in assay [16], > 100 µM (inactive); in [17] it was > 100 µM (inactive); in assay [18], > 100 µM (inactive). The GI50 in assay [19] and in assay [20] was > 100 µM (inactive) throughout.

In the case of `CN(C)CCNC(=O)c1cccc2c1Oc1c(cccc1[N+](=O)[O-])O2`, the GI50 in assay [1] was 1.71 µM (inactive); in assay [2], 2 µM (inactive); in [3], 1.94 µM (inactive); in [4], 2.78 µM (inactive); in assay [5], 0.74 µM (active); in assay [6], 0.908 µM (active). The GI50 is 0.288 µM (active) in assay [7]; 0.472 µM (active) in assay [8]; 1.06 µM (active) in [9]; 0.335 µM (active) in [10]; 0.544 µM in assay [12]; 1.39 µM (inactive) in [13]. For the same compound, the GI50 in [14] is 0.419 µM (active); in [15], 1.24 µM (inactive); in assay [16], 0.564 µM (active); in assay [17] it was 2.64 µM (inactive); in [18] it was 0.787 µM (active); in [19] it was 1.33 µM (inactive). Also, in assay [20], the GI50 is 0.371 µM (active).

Regarding `COc1ccc(/C=C/c2nsc(/C=C/c3ccc(OC)cc3)n2)cc1`, the GI50 in assay [1] was > 100 µM (inactive); in assay [2], 41.4 µM (inactive); in [3] it was > 100 µM (inactive); in assay [4], > 100 µM (inactive); in assay [6], 55.1 µM (inactive); in [7], > 100 µM (inactive). For the same compound, the GI50 in assay [8] was > 100 µM (inactive); in assay [10] it was > 100 µM (inactive); in assay [11], > 100 µM (inactive); in assay [12], 52.1 µM; in assay [13], > 100 µM (inactive); in assay [15], > 100 µM (inactive). Further, the GI50 in assay [16] is 21.8 µM (inactive); in assay [17], > 100 µM (inactive); in assay [18], 44.7 µM (inactive); in [19], > 100 µM (inactive); in assay [20], 19.3 µM (inactive).

In the case of `C=C1C2CCC3C4(C)CCCC(C)(C(=O)O)C4CCC3(C2)C1OC(=O)/C(C)=C/C` (stereo not drawn), the GI50 was 32.7 µM (inactive) in [1]; 39.7 µM (inactive) in assay [2]; 35.2 µM (inactive) in assay [3]; 22.6 µM (inactive) in assay [4]; 23 µM (inactive) in assay [5]; 34.5 µM (inactive) in assay [6]. In addition, the GI50 in assay [7] is 36 µM (inactive); in assay [8], 45.6 µM (inactive); in assay [9], 61.7 µM (inactive); in assay [10] it was 36.1 µM (inactive); in assay [12], 22.9 µM; in assay [13], 27.5 µM (inactive). The GI50 in assay [14] is 25.6 µM (inactive); in assay [15], 70.8 µM (inactive); in assay [16], 60.7 µM (inactive); in assay [17], 20.8 µM (inactive); in assay [18], 30.7 µM (inactive); in assay [19] it was 30 µM (inactive). Further, in assay [20], the GI50 was 53.2 µM (inactive).

Regarding `CO[C@H]1C[C@@H]2CC[C@@H](C)[C@@](O)(O2)C(=O)C(=O)N2CCCC[C@H]2C(=O)O[C@H]([C@H](C)C[C@@H]2CC[C@@H](OC(=O)C(C)(CO)CO)[C@H](OC)C2)CC(=O)[C@H](C)/C=C(\C)[C@@H](O)[C@@H](OC)C(=O)[C@H](C)C[C@H](C)/C=C/C=C/C=C/1C` [TEMSIROLIMUS], the GI50 in [1] was 0.00388 µM (active); in assay [2] it was 1.99 µM (inactive); in [3] it was 0.00724 µM (active); in assay [4] it was 4.03 µM (inactive); in assay [5], 0.00607 µM (active); in [6], 0.00327 µM (active). In addition, the GI50 was 0.0116 µM (active) in [7]; 0.00125 µM (active) in [8]; 4.23 µM (inactive) in assay [9]; 0.00723 µM (active) in assay [10]; 0.0258 µM (active) in assay [11]; 0.0849 µM in assay [12]. Further, the GI50 in assay [13] is 0.00873 µM (active); in assay [14], 0.0141 µM (active); in [15] it was 0.0104 µM (active); in assay [16] it was 0.00312 µM (active); in assay [17], 0.0417 µM (active); in assay [19], 0.000199 µM (active). The GI50 in assay [20] is 0.00177 µM (active).

On to `N#Cc1c(N)c2c(c(-c3ccccc3)c1-c1ccccc1)C(=O)N(Nc1ccccc1)C2=O`, for which the GI50 in assay [1] is 78.3 µM (inactive); in assay [2] it was 48.6 µM (inactive); in [3], 95.3 µM (inactive); in assay [4], 36.8 µM (inactive); in assay [5], 30.7 µM (inactive); in assay [6], 16.9 µM (inactive). In addition, the GI50 in assay [7] is 37.3 µM (inactive); in assay [9], > 100 µM (inactive); in [10], 59.2 µM (inactive); in [11] it was 45.8 µM (inactive); in assay [12], 45.7 µM; in assay [13], 35.8 µM (inactive). Moreover, the GI50 in assay [14] is 49.9 µM (inactive); in assay [15], 38.4 µM (inactive); in assay [16], 40.6 µM (inactive); in assay [17] it was 22.2 µM (inactive); in assay [18] it was 93.5 µM (inactive); in assay [19], > 100 µM (inactive). In assay [20], the GI50 is 31.6 µM (inactive).
